Measured values reported in PubChem BioAssay (NCI).
“And” between values parts separate entries of the source, which are not always exact repeats. Equal values may be shown once.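 Cells were grown in 96-well plates and exposed to each compound for 48 hours at five concentrations; endpoints were interpolated linearly between bracketing concentrations, or set to the highest concentration if not reached. Abbreviation: GI50, concentration required for 50% inhibition of growth. TGI is the concentration that stops growth completely.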

How the values were obtained:
Assay in all cases: inhibition of tumour cell growth, NCI panel, 48 h
[1] = test system: SN12C renal
[2] = test system: 786-0 renal
[3] = test system: UACC-257 melanoma
[4] = test system: OVCAR-3 ovarian
[5] = test system: RPMI-8226 leukemia
[6] = test system: KM12 colon
[7] = test system: MDA-MB-435
[8] = test system: SF-539 CNS
[9] = test system: SK-MEL-2 melanoma
[10] = test system: CCRF-CEM leukemia
[11] = test system: MOLT-4 leukemia
[12] = test system: TK-10 renal
[13] = test system: LOX IMVI melanoma
[14] = test system: SR leukemia
[15] = test system: UACC-62 melanoma

Compound	TGI [1] [µM]	TGI [2] [µM]	TGI [3] [µM]	TGI [4] [µM]	TGI [5] [µM]	TGI [6] [µM]	TGI [7] [µM]	TGI [8] [µM]	TGI [9] [µM]	TGI [10] [µM]	TGI [11] [µM]	TGI [12] [µM]	TGI [13] [µM]	TGI [14] [µM]	GI50 [1]	GI50 [6]	GI50 [15]	TGI [15] [µM]	GI50 [12] [µM]
CC1=CC(=O)c2ccc3c4ccccc4n(C)c3c2C1=O	> 100	> 100	> 100	> 100	> 100	> 100	33.4	> 100	53.1	> 81.5	> 72.8	> 100	–	–	–	–	–	–	–
Cc1nsc2cc(Cl)n(C)c(=O)c12	> 100	> 100	> 100	> 100	> 100	> 100	–	> 100	> 100	> 100	> 100	> 100	> 100	> 100	–	–	–	–	–
COc1cc(CNc2ccc(C)cc2)cc(OC)c1OC	> 87.6	> 44.9	> 100	0.597	> 50.2	2.33	–	–	> 100	> 83.6	> 100	> 100	> 100	> 100	585 nM and 3710 nM	104 nM and 341 nM	120 nM and 570 nM	> 100	4.28
C=Cc1c(-c2ccccc2)cnc2[nH]c3ccccc3c12	> 50	> 50	> 50	> 50	> 50	> 50	–	–	> 50	> 50	> 50	> 50	> 50	> 50	–	–	–	> 50	–
O=C(c1ccsc1)c1nccc2c1cnc1ccccc12	> 100	> 100	> 100	> 100	> 100	> 100	> 100	> 100	> 100	> 100	24.3	> 100	> 100	–	–	–	–	> 100	–
COc1ccc(-n2c(C)nc3ccc(NC4OC(COC(C)=O)C(OC(C)=O)C(OC(C)=O)C4OC(C)=O)cc3c2=O)cc1 (centres undefined)	> 100	65.3	> 100	> 100	61.2	> 100	> 100	–	> 100	–	80.8	> 100	> 100	> 100	–	–	–	> 100	–
O=C(CC(=O)n1nc(-c2ccccc2)c(N=Nc2ccc([N+](=O)[O-])cc2)c1-c1ccccc1)Nc1ccc(Cl)cc1	> 100	> 100	> 100	66.1	> 100	> 100	–	75.8	> 100	97	> 100	69.1	> 100	> 100	–	–	–	> 100	–
CC(C)(C)c1cc(C(C)(C)C)c(SSc2c(C(C)(C)C)cc(C(C)(C)C)c(O)c2O)c(O)c1O	25.3	19.2	21.7	–	32.1	25.4	17.2	–	28.4	7.5	10.4	–	23.6	10.4	–	–	–	18.8	–
CCCCCCCCCCCC(=O)OCC(O)CO (centres undefined)	> 100	> 100	> 100	> 100	–	75.6	> 100	> 100	> 100	> 100	> 100	> 100	> 100	–	–	–	–	> 100	–
C=C(Cl)C(Cl)(CBr)CCCC(C)C (centres undefined)	> 100	26.4	32.2	12.4	> 27.3	24.2	> 100	22.7	–	> 100	> 100	32.4	> 100	> 100	–	–	–	> 100	–
COc1ccc2[nH]c(=O)cc(C)c2c1[N+](=O)[O-]	> 100	> 100	> 100	> 100	> 100	> 100	–	> 100	> 100	> 100	> 100	> 100	> 100	–	–	–	–	> 100	–
COC(=O)C1=CCC[C@H]2[C@@]1(COC(C)=O)CC[C@@H](C)[C@]2(C)CC(=O)c1ccoc1	> 50	> 50	> 50	> 50	29.6	> 50	> 50	24.8	> 50	25.3	31.8	> 50	24.7	–	–	–	–	20.1	–
CC[n+]1c(/C=C/c2cc(C(=O)OC)n3c2sc2ccccc23)sc2ccccc21	49.3	38.6	33.1	42.4	–	29.1	–	33.8	39	32.6	33.9	–	40.5	–	–	–	–	30.9	–
Cc1ccc(C(=O)c2[nH]c(NCc3ccccc3)c(C(=S)Nc3ccccc3)c2N)cc1	28.8	18.7	18.4	25.2	5	6.34	10.2	5.63	22.8	28.9	6.38	23.3	3.97	–	–	–	–	25.2	–
COc1cc2c(c(OC)c1OC)[C@@H]1CCCCC[C@@H]1CCC2=O	> 100	> 100	> 100	> 100	> 64.1	> 100	–	> 100	> 100	> 77.8	> 64.7	> 100	38.9	> 59.2	–	–	–	> 100	–
CC1(C)COC(c2cccc(C(=O)c3ccccc3)c2)=N1	> 100	> 100	> 100	> 100	> 100	> 100	–	–	> 100	> 100	75.9	> 100	> 100	> 100	–	–	–	> 100	–
CN(C)Cc1cc(C(=O)/C=C/c2ccc(Cl)cc2Cl)cc(CN(C)C)c1O	6.96	13.5	17.6	11.6	> 100	4.51	17.1	17	–	8.88	4.71	24.2	2.49	> 100	–	–	–	–	–

Compound	TGI [1] [µM]	TGI [2] [µM]	TGI [3] [µM]	TGI [4] [µM]	TGI [5] [µM]	TGI [6] [µM]	TGI [7] [µM]	TGI [8] [µM]	TGI [9] [µM]	TGI [10] [µM]	TGI [11] [µM]	TGI [12] [µM]	TGI [13] [µM]	TGI [14] [µM]	GI50 [1]	GI50 [6]	GI50 [15]	TGI [15] [µM]	GI50 [12] [µM]
CCOC(=O)/C(=C\n1c(=O)sc2ccccc21)C(=O)c1ccccc1	> 100	> 100	> 100	–	> 100	> 100	> 100	> 100	> 100	> 100	> 100	–	> 100	> 100	–	–	–	> 100	–
C[C@]12CC/C(=N\OCCN3CCCC3)C=C1CCC1C2CC[C@@]2(C)C1CC[C@]2(C)O (some centres undefined)	21.3	14.8	17.8	24.1	14	19.1	6.67	22.9	44.2	9.6	12.6	37	15.1	–	–	–	–	11.8	–
c1ccc(CSCCC(SCc2ccccc2)SCc2ccccc2)cc1	> 10	> 10	> 10	> 10	> 10	> 10	–	> 10	> 10	> 10	> 10	> 10	> 10	> 10	–	–	–	> 10	–
N=c1oc2ccccc2cc1C(=O)Nc1ccccn1	> 100	> 100	> 100	> 100	> 100	> 100	> 100	> 100	> 100	> 100	> 100	–	> 100	> 100	–	–	–	> 100	–
COC(=O)/C=C1/OC(c2ccccc2)=C(Br)C1=O	89.2	81.6	> 100	> 100	> 100	> 100	> 100	> 100	–	> 100	> 100	> 100	43.3	> 100	–	–	–	> 100	–
C=CCNC(=S)NC=C(C(N)=O)C(N)=O	> 100	> 100	> 100	> 100	> 100	> 100	> 100	> 100	> 100	> 100	> 100	–	> 100	> 100	–	–	–	> 100	–
COc1cnc2oc3ccc(O)cc3c2c1-c1ccccc1	> 100	> 100	> 100	> 100	> 100	> 100	> 100	> 100	> 100	> 100	> 100	> 100	> 100	–	–	–	–	–	–
COC(=O)c1c(C)c2c(c(C)c1O)OC(=O)c1c(C)cc(O)c(C=O)c1O2	> 100	> 100	> 100	> 100	> 100	> 100	> 100	> 100	–	> 100	> 100	> 100	–	> 100	–	–	–	> 100	–
CC1(C)C2CCC1(C)C(NC(=O)COCCOCC(N)=O)C2 (centres undefined)	> 100	> 100	> 100	> 100	–	> 100	> 100	> 100	–	> 100	> 100	> 100	–	85.1	–	–	–	> 100	–
c1ccc(Nc2nnc(-c3ccccc3Nc3ccccc3-c3nnc(Nc4ccccc4)s3)s2)cc1	–	> 100	> 100	> 100	–	> 100	> 100	> 100	> 100	> 100	> 100	> 100	> 100	–	–	–	–	> 100	–
CC(=O)NC1=C(NCCO)C(=O)c2ccccc2C1=O	> 50	> 50	> 50	> 50	–	> 50	–	> 50	> 50	> 50	> 50	> 50	> 50	> 50	–	–	–	> 50	–
CCN1C(c2ccccc2)=CC(c2ccccc2)(C(Cl)(Cl)Cl)C=C1c1ccccc1	> 100	> 100	> 100	> 100	> 100	16.2	9.51	37	–	> 100	61.8	> 100	56.7	–	–	–	–	–	–
C=C1C(=O)OC2/C=C(\CO)C3OC3C3OC3(C)CC(OC(=O)/C(=C/C)COC(C)=O)C12 (centres undefined)	10.9	5.36	12.6	11.4	> 100	19	7.88	7.38	6.78	–	> 100	11.1	3.24	–	–	–	–	6.2	–
Cc1cc(O)c(C(O)c2ccccn2)cc1O (centres undefined)	43.7	34.5	–	28.6	67.4	82.3	35.3	> 100	–	38.4	> 100	31.8	30.8	10.2	–	–	–	28.7	–
COc1cccc(/C=N/[N+](C)(C)C)c1O	> 10	> 10	> 10	> 10	> 10	> 10	> 10	> 10	> 10	> 10	> 10	> 10	> 10	–	–	–	–	> 10	–
Fc1nc(-c2c3ccccc3c3sc4ccccc4n23)nc(N2CCOCCOCCOCCOCC2)n1	> 100	> 100	> 100	> 100	> 100	> 100	> 100	> 100	–	93.4	> 100	> 100	> 100	68.6	–	–	–	> 100	–
O=C(O)C(Cc1ccc(O)cc1)N=Cc1nc(-c2ccccc2)oc1O (centres undefined)	–	> 100	> 100	> 100	> 100	> 100	–	> 100	> 100	> 100	–	> 100	> 100	–	–	–	–	–	–
